{"source": "patent EP0356739B1", "about": "“Recombinant DNA, microorganism carrying said recombinant DNA, and process for producing L-amino acids by the use of said microorganism” (AJINOMOTO CO., INC., priority 1988, dated 1990)", "key": {"[1]": {"tested_on": "acetohydroxy acid synthase", "assay": "Acetohydroxy acid synthase activity of crude enzyme solution from transformant AJ12403/pAJ220V3, with amino acid added (feedback inhibition)", "type": "biochemical, Brevibacterium lactofermentum", "conditions": "Amino acid added (5mM); crude enzyme of strain AJ12403/pAJ220V3; 65mM phosphate buffer, 100mM sodium pyruvate", "source_text": "(§1) In order to confirm that the DNA donor strain or transformant imparted with resistance to antagonist contains a mutant-type gene that codes for acetohydroxy acid synthase with reduced feedback inhibition by L-valine, L-leucine or L-isoleucine, it is necessary to prepare an enzyme solution from that antagonist-resistant strain or transformant, to allow this solution to act upon pyruvic acid ( as substrate ) in the presence of L-valine, L-leucine or L-isoleucine, and to measure the amount of 2-acetolactic acid formed.\n(§2) A strain being tested was cultivated in production medium (A) for about 18 hours, the grown cells were ultrasonicated, and the resulting solution was centrifuged at 15,000 r.p.m. for 20 minutes.\n(§3) The supernatant thus obtained was used as a crude enzyme solution, which was added to a solution containing 65mM phosphate buffer and 100mM sodium pyruvate to effect enzymic reaction. Acetolactic acid thus formed was converted to acetoin, and the color developed by addition of 2-naphthol was measured at 530 nm."}, "[2]": {"tested_on": "acetohydroxy acid synthase", "assay": "Acetohydroxy acid synthase activity of crude enzyme solution from wild-type strain ATCC13869, with amino acid added (feedback inhibition)", "type": "biochemical, Brevibacterium lactofermentum", "conditions": "Amino acid added (5mM), 65mM phosphate buffer, 100mM sodium pyruvate", "source_text": "as §1, §2, §3"}}, "data": [{"smiles": "CC[C@H](C)[C@H](N)C(=O)O", "note": "[L-Ile, L-isoleucine]", "values": [{"measurement": "relative activity values (%) when the activity in the absence of amino acid is taken as 100", "setting": "[1]", "result": 101, "unit": "%"}, {"measurement": "relative activity values (%) when the activity in the absence of amino acid is taken as 100", "setting": "[2]", "result": 60, "unit": "%"}]}, {"smiles": "CC(C)C[C@H](N)C(=O)O", "note": "[L-Leu, L-leucine]", "values": [{"measurement": "relative activity values (%) when the activity in the absence of amino acid is taken as 100", "setting": "[1]", "result": 119, "unit": "%"}, {"measurement": "relative activity values (%) when the activity in the absence of amino acid is taken as 100", "setting": "[2]", "result": 67, "unit": "%"}]}, {"smiles": "CC(C)[C@H](N)C(=O)O", "note": "[L-Val, L-valine]", "values": [{"measurement": "relative activity values (%) when the activity in the absence of amino acid is taken as 100", "setting": "[1]", "result": 108, "unit": "%"}, {"measurement": "relative activity values (%) when the activity in the absence of amino acid is taken as 100", "setting": "[2]", "result": 60, "unit": "%"}]}]}
